Patent US20250262228A1, “TREATMENT OF SPASTICITY AND PAIN IN RENALLY-IMPAIRED PATIENTS” (Jazz Pharmaceuticals Research UK Limited., priority 2022, published 2025)

How the values were obtained:
[1] = for Cmax, Geometric LS Mean Ratio (Severe RI/Normal), Estimate / AUClast, Geometric LS Mean Ratio (Severe RI/Normal), Estimate: plasma, mixed model; for Cmax, Geometric LS Mean Ratio (Severe RI/Normal), Estimate / AUClast, Geometric LS Mean Ratio (Severe RI/Normal), Estimate / increase in AUClast in severe renal impairment versus normal renal function / AUC0-tlast Fold Change from Normal / increase in AUC in the renally impaired group compared to the normal group / mean plasma concentrations over time in renally impaired participants versus normal: 4 sprays; for AUClast, Geometric LS Mean Ratio (Severe RI/Normal), Estimate: significant when ratio >=2.0 plus 90% CI outside 0.5-2.0; for elimination in patients with renal impairment: renally impaired vs normal, after oromucosal spray; for increase in AUClast in severe renal impairment versus normal renal function / increase in AUC in the renally impaired group compared to the normal group: severe renal impairment vs normal, oromucosal spray; for AUC0-tlast Fold Change from Normal / mean plasma concentrations over time in renally impaired participants versus normal: severe renal impairment; for mean plasma concentrations over time in renally impaired participants versus normal: FIGS. 1-4
Excerpt: Rationale: To date, no studies of administering the disclosed oromucosal spray in patients with varying degrees of renal impairment have been conducted. The present trial investigated the effects of the oromucosal spray in subjects with severe renal impairment. The principal aim of this trial was to assess the pharmacokinetic (PK) parameters following oromucosal administration in patients with severe renal impairment and individually matched healthy participants (i.e., otherwise identical patients with normal renal function).
Primary Objectives: Evaluated and compared the PK parameters of the oromucosal spray in participants with severe renal impairment or End-Stage Renal Disease (ESRD) to the PK profile in matched participants with normal renal function.
Primary Endpoints: The PK parameters, derived from the plasma concentration-time (Cmax) and area under the concentration-time curve calculated to the last concentration at time t (AUC0-t), or 48 hours (AUC0-48), for THC, CBD, and metabolites of THC and CBD (e.g., 11-OH-THC and 7-COOH-CBD).
The 4 sprays administered a total of 10.8 mg THC and 10 mg CBD. The duration of the trial was approximately 45 days, which included a screening period (up to 4 weeks), a treatment period (48 hours) and a safety follow-up period (2 weeks). Screening was performed within 28 to 2 days before dosing, and the assessments included measurement of serum creatinine to assess the eGFR as determined by the modification of diet in renal disease formula (MDRD) to verify initial participant eligibility for trial participation. Participants entered the screening period (Day −28 to −1). From Day −1, screened participants who continued to meet eligibility criteria were admitted to the clinical research facility and placed under observation continually from dosing until 48 hours postdose. […] On Day 1, participants received 4 sprays of the oromucosal spray.
Formulation Mode of Administration, Dose, and Regimen: The oromucosal spray was formulated as a mixture of THC and CBD extracts derived from Cannabis sativa L. The formulation contains THC and CBD as the most abundant cannabinoid constituents and also contains minor constituents including related cannabinoids and non-cannabinoid plant components, such as terpenes, sterols, and triglycerides. The spray contains 27 mg/mL of THC and 25 mg/mL of CBD dissolved in the excipients (e.g., ethanol and propylene glycol). Each spray delivers 100 μL containing 2.7 mg of THC and 2.5 mg of CBD.
Procedures: PK samplings were taken as close as to the nominal time point. Participants fasted overnight for at least 10 hours prior to the administration and for at least 4 hours thereafter. Standardized meals and beverages were provided at approximately 4 hours and 9 hours after dosing. With the exception of the water administered at the time of dosing, water was not permitted from 1 hour before until 1 hour after dosing. […] Cannabis or use of anticonvulsants, antidepressants, antipsychotic and anxiolytic medications were not allowed throughout the trial. Alcohol, nicotine products, and consuming food or beverages containing methylxanthines (caffeinated food or beverages) were prohibited for 24 hours prior to each visit and throughout the inpatient period.

[2] = renally impaired patients administered highly purified CBD; cited from earlier work

**Q.** With C=C(C)[C@@H]1CCC(C(=O)O)=C[C@H]1c1c(O)cc(CCCCC)cc1O [7-COOH-CBD] as the compound, how does the “Cmax, Geometric LS Mean Ratio (Severe RI/Normal), Estimate” value (“Cmax, Geometric LS Mean Ratio” for short) [1] read?
**A.** 1.4

**Q.** And the “AUClast, Geometric LS Mean Ratio (Severe RI/Normal), Estimate” value (“AUClast, Geometric LS Mean Ratio” below) [1]?
**A.** 1.92

**Q.** And the “elimination in patients with renal impairment” value (from here on “elimination in patients”) [1]?
**A.** relatively unchanged

**Q.** What about the “increase in AUClast in severe renal impairment versus normal renal function” value [1] of the same compound?
**A.** < 2 fold

**Q.** And the “AUC0-tlast Fold Change from Normal” value [1]?
**A.** 1.92 fold

**Q.** With C=C(C)[C@@H]1CCC(CO)=C[C@H]1c1c(O)cc(CCCCC)cc1O [7-OH-CBD] as the compound, how does the “Cmax, Geometric LS Mean Ratio” value [1] read?
**A.** 1.89

**Q.** What about the “AUClast, Geometric LS Mean Ratio” value [1] of the same compound?
**A.** 4.59

**Q.** What about the “elimination in patients” value [1] of the same compound?
**A.** clinically significant prolonged elimination

**Q.** And the “increase in AUC in the renally impaired group compared to the normal group” value [1]?
**A.** 4.59 fold

**Q.** What about the “increase in AUClast in severe renal impairment versus normal renal function” value [1] of the same compound?
**A.** approximately 3 fold

**Q.** And the “AUC0-tlast Fold Change from Normal” value [1]?
**A.** 4.59 fold

**Q.** For CCCCCc1cc(O)c2c(c1)OC(C)(C)[C@@H]1CCC(C(=O)O)=C[C@@H]21 [11-COOH-THC], which “Cmax, Geometric LS Mean Ratio” value [1] is on record?
**A.** 1.15

**Q.** What about the “AUClast, Geometric LS Mean Ratio” value [1] of the same compound?
**A.** 1.26

**Q.** And the “elimination in patients” value [1]?
**A.** relatively unchanged

**Q.** What about the “AUC0-tlast Fold Change from Normal” value [1] of the same compound?
**A.** 1.26 fold

**Q.** For CCCCCc1cc(O)c2c(c1)OC(C)(C)[C@@H]1CCC(CO)=C[C@@H]21 [11-OH-THC], which “mean plasma concentrations over time in renally impaired participants versus normal” value [1] is on record?
**A.** Much higher

**Q.** What about the “Cmax, Geometric LS Mean Ratio” value [1] of the same compound?
**A.** 2.13

**Q.** And the “AUClast, Geometric LS Mean Ratio” value [1]?
**A.** 3.18

**Q.** And the “elimination in patients” value [1]?
**A.** clinically significant prolonged elimination

**Q.** And the “increase in AUC in the renally impaired group compared to the normal group” value [1]?
**A.** 3.18 fold

**Q.** What about the “AUC0-tlast Fold Change from Normal” value [1] of the same compound?
**A.** 3.18 fold

**Q.** Which “mean plasma concentrations over time in renally impaired participants versus normal” value [1] does the source give for C=C(C)[C@@H]1CCC(C)=C[C@H]1c1c(O)cc(CCCCC)cc1O [CBD, Cannabidiol, reference compound] here?
**A.** elevated

**Q.** What about the “Cmax, Geometric LS Mean Ratio” value [1] of the same compound?
**A.** 1.11

**Q.** What about the “AUClast, Geometric LS Mean Ratio” value [1] of the same compound?
**A.** 1.95

**Q.** And the “elimination in patients” value [1]?
**A.** relatively unchanged

**Q.** And the “AUC0-tlast Fold Change from Normal” value [1]?
**A.** 1.95 fold

**Q.** Which results are given for CCCCCc1cc(O)c2c(c1)OC(C)(C)[C@@H]1CCC(C)=C[C@@H]21 [THC, Δ-9-tetrahydrocannabinol, reference compound]?
**A.** mean plasma concentrations over time in renally impaired participants versus normal [1]: elevated; Cmax, Geometric LS Mean Ratio (Severe RI/Normal), Estimate [1]: 0.8; AUClast, Geometric LS Mean Ratio (Severe RI/Normal), Estimate [1]: 1.34; elimination in patients with renal impairment [1]: relatively unchanged; AUC0-tlast Fold Change from Normal [1]: 1.34 fold

**Q.** Which “clinically relevant elevations of CBD, 7-OH-CBD and 7-COOH-CBD (mean AUClast ratios greater than 2 between the renally impaired and the control)” value [2] does the source give for C=C(C)[C@@H]1CCC(C)=C[C@H]1c1c(O)cc(CCCCC)cc1O [highly purified form of CBD] here?
**A.** not observed
